Experimental data published in US10239873B2, “7-azaindole or 4,7-diazaindole derivatives as IKKϵ epsilon and TBK1 inhibitor and pharmaceutical composition comprising same” (GREEN CROSS CORPORATION, priority 2015, dated 2019).

Molecular target: T1, TBK1 (Homo sapiens, UniProt Q9UHD2)
T1 construct: purchased Promega (Invitrogen is also named in the same bracket) V4158; PR8031B; V3991 (not assigned to the two kinases)
T1 sequence (Q9UHD2 1-729): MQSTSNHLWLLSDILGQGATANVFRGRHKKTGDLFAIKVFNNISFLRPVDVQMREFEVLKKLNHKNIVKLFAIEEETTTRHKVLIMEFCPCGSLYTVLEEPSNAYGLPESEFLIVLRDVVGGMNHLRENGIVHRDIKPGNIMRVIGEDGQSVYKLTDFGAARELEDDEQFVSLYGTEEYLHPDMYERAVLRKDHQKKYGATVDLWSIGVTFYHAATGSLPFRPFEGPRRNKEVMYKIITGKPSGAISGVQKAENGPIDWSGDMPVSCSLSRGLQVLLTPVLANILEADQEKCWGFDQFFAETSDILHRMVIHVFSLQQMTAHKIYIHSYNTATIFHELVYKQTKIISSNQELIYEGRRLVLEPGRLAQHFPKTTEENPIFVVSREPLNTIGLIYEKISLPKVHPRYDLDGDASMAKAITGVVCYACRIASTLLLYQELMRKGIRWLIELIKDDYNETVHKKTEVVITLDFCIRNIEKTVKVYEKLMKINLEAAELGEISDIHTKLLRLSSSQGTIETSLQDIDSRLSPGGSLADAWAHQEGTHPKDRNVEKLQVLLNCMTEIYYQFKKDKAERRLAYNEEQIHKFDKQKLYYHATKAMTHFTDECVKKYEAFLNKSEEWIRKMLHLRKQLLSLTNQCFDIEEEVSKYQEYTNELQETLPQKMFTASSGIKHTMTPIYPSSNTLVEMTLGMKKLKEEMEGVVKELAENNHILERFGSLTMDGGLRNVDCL
Test: ADP-Glo Kinase Assay, inhibition activity on TBK1
Assay type: biochemical
Procedure: Inhibition activities on IKKϵ and TBK1 were evaluated using the compounds of Examples 1 to 250.
The inhibition activities on IKKϵ and TBK1 were measured by a luminometer, IKKϵ/TBK1 Kinase Enzyme System (Promega, Ca# V4158; Invitrogen, PR8031B, Promega, Ca# V3991) and ADP-Glo Kinase Assay using ADP-Glo™ Kinase Analysis Kit (Promega, Ca# V9101) and a kinase reaction buffer [40 mM Tris(pH 7.5), 20 mM MgCl2, 0.1 mg/mL BSA] in accordance with the manufacturer's protocol.

Row | Structure (SMILES) | IC50
1 | O=C(NCc1ccco1)c1ccc(-c2cnc3[nH]cc(C4=CCN(C(=O)NC5CCCC5)CC4)c3c2)cc1 [Example 66, N-cyclopentyl-4-(5-(4-((furan-2-ylmethyl)carbamoyl)phenyl)-1H-pyrrolo[2,3-b]pyridin-3-yl)-5,6-dihydropyridine-1(2H)-carboxamide] | 250 nM
2 | O=C(NC1CCCC1)N1CC=C(c2c[nH]c3ncc(-c4ccc(Cl)c(C(=O)N5CCOCC5)c4)cc23)CC1 [Example 76, 4-(5-(4-Chloro-3-(morpholine-4-carbonyl)phenyl)-1H-pyrrolo[2,3-b]pyridin-3-yl)-N-cyclopentyl-3,6-dihydropyridine-1(2H)-carboxamide 2,2,2-trifluoroacetate] | 290 nM
3 | O=C(NC1CCCC1)N1CC=C(c2c[nH]c3ncc(-c4ccc(OCCN5CCOCC5)cc4)cc23)CC1 [Example 69, N-cyclopentyl-4-(5-(4-(2-morpholinoethoxy)phenyl)-1H-pyrrolo[2,3-b]pyridin-3-yl)-5,6-dihydropyridine-1(2H)-carboxamide] | 65 nM
4 | CC(C)(C)OC(=O)N1CC=C(c2c[nH]c3ncc(-c4ccc(N5CCOCC5)cc4)cc23)CC1 [Example 158, tert-Butyl 4-(5-(4-morpholinophenyl)-1H-pyrrolo[2,3-b]pyridin-3-yl)-5,6-dihydropyridine-1(2H)-carboxylate] | 410 nM
5 | CC(C)(C)OC(=O)N1CC=C(c2c[nH]c3ncc(-c4cccc(CN5CCOCC5)c4)cc23)CC1 [Example 156, tert-Butyl 4-(5-(3-(morpholinomethyl)phenyl)-1H-pyrrolo[2,3-b]pyridin-3-yl)-5,6-dihydropyridine-1(2H)-carboxylate] | 260 nM
6 | COc1ccc(-c2cnc3[nH]cc(C4=CCN(C(=O)c5cccs5)CC4)c3c2)cc1F [Example 192, (4-(5-(3-Fluoro-4-methoxyphenyl)-1H-pyrrolo[2,3-b]pyridin-3-yl)-5,6-dihydropyridin-1(2H)-yl)(thiophen-2-yl)methanone] | 460 nM
7 | CCOC(=O)N1CC=C(c2c[nH]c3ncccc23)CC1 [Example 135, Ethyl 4-(1H-pyrrolo[2,3-b]pyridin-3-yl)-5,6-dihydropyridine-1(2H)-carboxylate] | 1100 nM
8 | NS(=O)(=O)c1ccc(-c2cnc3[nH]cc(C4=CCN(C(=O)NC5CCCC5)CC4)c3c2)cc1 [Example 58, N-cyclopentyl-4-(5-(4-sulfamoylphenyl)-1H-pyrrolo[2,3-b]pyridin-3-yl)-5,6-dihydropyridine-1(2H)-carboxamide] | 61 nM
9 | COc1ccc(-c2cnc3[nH]cc(C4=CCN(C(=O)OC(C)(C)C)CC4)c3n2)cc1OC [Example 230, tert-butyl 4-(2-(3,4-dimethoxyphenyl)-5H-pyrrolo[2,3-b]pyrazin-7-yl)-5,6-dihydropyridine-1(2H)-carboxylate] | 320 nM
10 | CC(C)(C)OC(=O)N1CC=C(c2c[nH]c3nc(N)c(-c4ccc(CN5CCOCC5)s4)cc23)CC1 [Example 225, tert-butyl 4-(6-amino-5-(5-(morpholinomethyl)thiophen-2-yl)-1H-pyrrolo[2,3-b]pyridin-3-yl)-5,6-dihydropyridine-1(2H)-carboxylate] | > 10000 nM
11 | CC(=O)Nc1ccc(N)c(-c2cnc3[nH]cc(C4=CCN(C(=O)NC5CCCC5)CC4)c3c2)c1 [Example 65, 4-(5-(5-Acetamido-2-aminophenyl)-1H-pyrrolo[2,3-b]pyridin-3-yl)-N-cyclopentyl-5,6-dihydropyridine-1(2H)-carboxamide] | 1900 nM
12 | CS(=O)(=O)Nc1cccc(-c2cnc3[nH]cc(C4=CCN(C(=O)c5cccs5)CC4)c3c2)c1 [Example 201, N-(3-(3-(1-(thiophene-2-carbonyl)-1,2,3,6-tetrahydropyridin-4-yl)-1H-pyrrolo[2,3-b]pyridin-5-yl)phenyl)methansulfonamide] | > 10000 nM
13 | CC(C)(C)OC(=O)N1CC=C(c2c[nH]c3ncc(-c4ccc(CN5CCOCC5)s4)nc23)CC1 [Example 234, tert-butyl 4-(2-(5-(morpholinomethyl)thiophen-2-yl)-5H-pyrrolo[2,3-b]pyrazin-7-yl)-5,6-dihydropyridine-1(2H)-carboxylate] | 470 nM
14 | CNS(=O)(=O)c1cccc(-c2cnc3[nH]cc(C4=CCN(C(=O)c5cccs5)CC4)c3c2)c1 [Example 199, N-methyl-3-(3-(1-(thiophene-2-carbonyl)-1,2,3,6-tetrahydropyridin-4-yl)-1H-pyrrolo[2,3-b]pyridin-5-yl)benzensulfonamide] | 34 nM
15 | COc1ccc(-c2cc3c(C4=CCN(C(=O)OC(C)(C)C)CC4)c[nH]c3nc2N)cc1OC [Example 224, tert-butyl 4-(6-amino-5-(3,4-dimethoxyphenyl)-1H-pyrrolo[2,3-b]pyridin-3-yl)-5,6-dihydropyridine-1(2H)-carboxylate] | > 10000 nM
16 | O=C(NCc1ccco1)c1cccc(-c2cnc3[nH]cc(C4=CCN(C(=O)NC5CCCC5)CC4)c3c2)c1 [Example 67, N-cyclopentyl-4-(5-(3-((furan-2-ylmethyl)carbamoyl)phenyl)-1H-pyrrolo[2,3-b]pyridin-3-yl)-5,6-dihydropyridine-1(2H)-carboxamide] | 410 nM
17 | COc1ccc(-c2cnc3[nH]cc(C4=CCN(C(=O)c5cccs5)CC4)c3c2)cc1OC [Example 191, (4-(5-(3,4-Dimethoxyphenyl)-1H-pyrrolo[2,3-b]pyridin-3-yl)-5,6-dihydropyridin-1(2H)-yl)(thiophen-2-yl)methanone] | 110 nM
18 | CC(C)OC(=O)N1CC=C(c2c[nH]c3ncc(-c4cccc(S(N)(=O)=O)c4)cc23)CC1 [Example 146, Isopropyl 4-(5-(3-sulfamoylphenyl)-1H-pyrrolo[2,3-b]pyridin-3-yl)-5,6-dihydropyridine-1(2H)-carboxylate] | > 10000 nM
19 | COc1ccc(-c2cnc3[nH]cc(-c4ccc(CC(=O)NC5CCCC5)cc4)c3c2)cc1OC [Example 246, N-cyclopentyl-2-(4-(5-(3,4-dimethoxyphenyl)-1H-pyrrolo[2,3-b]pyridin-3-yl)phenyl)acetamide 2,2,2-trifluoroacetate] | 4100 nM
20 | NS(=O)(=O)c1cccc(-c2cnc3[nH]cc(C4=CCN(C(=O)c5cccs5)CC4)c3c2)c1 [Example 198, 3-(3-(1-(thiophene-2-carbonyl)-1,2,3,6-tetrahydropyridin-4-yl)-1H-pyrrolo[2,3-b]pyridin-5-yl)benzensulfonamide] | 15 nM
21 | CCC(C)NC(=O)N1CC=C(c2c[nH]c3ncc(-c4ccc(CN5CCOCC5)s4)cc23)CC1 (stereo not drawn) [Example 43, N-(sec-butyl)-4-(5-(5-(morpholinomethyl)thiophen-2-yl)-1H-pyrrolo[2,3-b]pyridin-3-yl)-5,6-dihydropyridine-1(2H)-carboxamide] | 5.5 nM
22 | Cc1[nH]c2ncc(-c3ccc(C(=O)N4CCOCC4)cc3)cc2c1C1=CCN(C(=O)NC2CCCC2)CC1 [Example 223, N-cyclopentyl-4-(2-methyl-5-(4-(morpholine-4-carbonyl)phenyl)-1H-pyrrolo[2,3-b]pyridin-3-yl)-5,6-dihydropyridine-1(2H)-carboxamide] | 1600 nM
23 | CC(C)(C)OC(=O)N1CC=C(c2c[nH]c3ncc(-c4ccc(C#N)cc4)cc23)CC1 [Example 168, tert-Butyl 4-(5-(4-cyanophenyl)-1H-pyrrolo[2,3-b]pyridin-3-yl)-5,6-dihydropyridine-1(2H)-carboxylate] | 1300 nM
24 | NS(=O)(=O)c1ccc(-c2cnc3[nH]cc(C4=CCN(C(=O)OC5CCCC5)CC4)c3c2)cc1 [Example 176, Cyclopentyl 4-(5-(4-sulfamoylphenyl)-1H-pyrrolo[2,3-b]pyridin-3-yl)-5,6-dihydropyridine-1(2H)-carboxylate] | 52 nM
25 | CN1CCN(Cc2ccc(-c3cnc4[nH]cc(C5=CCN(C(=O)NC6CCOC6)CC5)c4c3)s2)CC1 (stereo not drawn) [Example 83, 4-(5-(5-((4-Methylpiperazin-1-yl)methyl)thiophen-2-yl)-1H-pyrrolo[2,3-b]pyridin-3-yl)-N-(tetrahydrofuran-3-yl)-5,6-dihydropyridine-1(2H)-carboxamide] | 13 nM
26 | O=C(NC1CCCC1)N1CC=C(c2c[nH]c3ncc(-c4cccc(S(=O)(=O)N5CCOCC5)c4)cc23)CC1 [Example 62, N-cyclopentyl-4-(5-(3-(morpholinosulfonyl)phenyl)-1H-pyrrolo[2,3-b]pyridin-3-yl)-5,6-dihydropyridine-1(2H)-carboxamide] | 91 nM
27 | CNS(=O)(=O)c1cccc(-c2cnc3[nH]cc(C4=CCN(C(=O)NC5CCCC5)CC4)c3c2)c1 [Example 59, N-cyclopentyl-4-(5-(3-(N-methylsulfamoyl)phenyl)-1H-pyrrolo[2,3-b]pyridin-3-yl)-5,6-dihydropyridine-1(2H)-carboxamide] | 30 nM
